Patent US12667626B2, “Compositions and methods relating to erythrocytes with adhered particles” (PRESIDENT AND FELLOWS OF HARVARD COLLEGE, priority 2019, dated 2026)

Key:
[1] = Chemokine gradient assay (CXCL10 in lung and blood); assay type: in vivo, mice; conditions: 5× higher dose, free form
Procedure: The chemokine gradient assay was conducted on the early-stage lung metastasis model as follows. To evaluate chemokine gradient restoration capability of the therapy, early-stage spontaneous lung metastasis model was established as described in the previous context. One saline and three treatment groups (5× free CXCL10 chemokine, ImmunoBait with anti-ICAM-1, and erythrocyte hitchhiked ImmunoBait with anti-ICAM-1) were included into the study. Treatments were given starting one week after surgery. Two injection sets were given on day 7 and day 10 after surgery. (n=4-5 for each time point for each group). Mice were sacrificed at 20 mins and 6 h after the second injection, blood was collected by cardiac puncture and lungs were excised. Chemokine content in lungs and blood were quantified as described above.
The chemokine gradient assay was conducted on the early-stage lung metastasis model as follows. To evaluate chemokine gradient restoration capability of the therapy, early-stage spontaneous lung metastasis model was established as described in the previous context. One saline and three treatment groups (5× free CXCL10 chemokine containing 12.5 μg CXCL10, ImmunoBait with anti-ICAM-1 containing 2.5 μg CXCL10, and erythrocyte hitchhiked ImmunoBait with anti-ICAM-1 containing 2.5 μg CXCL10) were included into the study. […] Chemokine content in lungs and blood were quantified as described above.

[2] = test system: B16F10-Luc melanoma lung metastasis; test: Efficacy in early-stage B16F10-Luc lung metastasis model; assay type: in vivo, mice
Procedure: Efficacy studies on in vivo experimental lung metastasis model. Experimental lung metastasis model was established by intravenous injection of 1×10^5 B16F10-Luc cells in to the tail vein of female C57BL/6 mice. Efficacy for the treatment groups was evaluated in an early stage and late stage metastatic models. Mice were randomized based on the bioluminescence intensity in the lungs one day before the first injection of therapies. A control (Saline) group and three treatment groups (DOX-NPs, RBC-NPs, free DOX) at a dose of 5.2 mg/kg were evaluated for their efficacy (n=7 for all groups, unless otherwise specified).
For the early-stage metastatic model, treatments were given starting the day after the inoculation. Four injections were given over six days, i.e. day 1, 3, 5 and 7 after inoculation. On days 6, 8, 10, 12, 18, 23, 31 after inoculation, the mice were imaged using in vivo imaging (Perkin Elmer IVIS Spectrum™, MA, USA). Briefly, mice were injected intraperitoneally with 150 μL of 30 mg/mL Xenolight™-D-luciferin in saline. […] The average radiance (bioluminescence intensity) was evaluated using the software Living System®. The animals were further monitored for their survival.

Row | Compound | chemokine gradient established [1] | lung metastasis burden inhibited ([2]; day 16, early-stage model) [%] | median survival time ([2]; early-stage model, control 29 days) [days] | body weight change ([2]; treatment period, 5.2 mg/kg)
1 | CXCL10 [free chemokine] | weak chemokine gradient |  |  | 
2 | COc1cccc2c1C(=O)c1c(O)c3c(c(O)c1C2=O)C[C@@](O)(C(=O)CO)C[C@@H]3O[C@H]1C[C@H](N)[C@H](O)[C@H](C)O1 [free drug, doxorubicin] |  | 94.2 | 32 | sharp decline in the body weight
